Measured values published in the kinase profiling compilation of Christmann-Franck et al. (2016).

What was measured:
Experiment in all cases: SelectScreen, TR FRET
[1] = biological target: AKT3 (human) (UniProt Q9Y243)
[2] = biological target: BRAF (human) (UniProt P15056)
[3] = biological target: KDR (human) (UniProt P35968)
[4] = biological target: MAPKAPK5 (human) (UniProt Q8IW41)
[5] = biological target: ADRBK1 (human) (UniProt P25098)
[6] = biological target: DYRK1A (human) (UniProt Q13627)
[7] = biological target: MAPK14 (human) (UniProt Q16539)
[8] = biological target: IGF1R (human) (UniProt P08069)
[9] = biological target: PASK (human) (UniProt Q96RG2)
[10] = biological target: DAPK1 (human) (UniProt P53355)
Sequence of DAPK1 (human) (P53355 whole entry, looked up): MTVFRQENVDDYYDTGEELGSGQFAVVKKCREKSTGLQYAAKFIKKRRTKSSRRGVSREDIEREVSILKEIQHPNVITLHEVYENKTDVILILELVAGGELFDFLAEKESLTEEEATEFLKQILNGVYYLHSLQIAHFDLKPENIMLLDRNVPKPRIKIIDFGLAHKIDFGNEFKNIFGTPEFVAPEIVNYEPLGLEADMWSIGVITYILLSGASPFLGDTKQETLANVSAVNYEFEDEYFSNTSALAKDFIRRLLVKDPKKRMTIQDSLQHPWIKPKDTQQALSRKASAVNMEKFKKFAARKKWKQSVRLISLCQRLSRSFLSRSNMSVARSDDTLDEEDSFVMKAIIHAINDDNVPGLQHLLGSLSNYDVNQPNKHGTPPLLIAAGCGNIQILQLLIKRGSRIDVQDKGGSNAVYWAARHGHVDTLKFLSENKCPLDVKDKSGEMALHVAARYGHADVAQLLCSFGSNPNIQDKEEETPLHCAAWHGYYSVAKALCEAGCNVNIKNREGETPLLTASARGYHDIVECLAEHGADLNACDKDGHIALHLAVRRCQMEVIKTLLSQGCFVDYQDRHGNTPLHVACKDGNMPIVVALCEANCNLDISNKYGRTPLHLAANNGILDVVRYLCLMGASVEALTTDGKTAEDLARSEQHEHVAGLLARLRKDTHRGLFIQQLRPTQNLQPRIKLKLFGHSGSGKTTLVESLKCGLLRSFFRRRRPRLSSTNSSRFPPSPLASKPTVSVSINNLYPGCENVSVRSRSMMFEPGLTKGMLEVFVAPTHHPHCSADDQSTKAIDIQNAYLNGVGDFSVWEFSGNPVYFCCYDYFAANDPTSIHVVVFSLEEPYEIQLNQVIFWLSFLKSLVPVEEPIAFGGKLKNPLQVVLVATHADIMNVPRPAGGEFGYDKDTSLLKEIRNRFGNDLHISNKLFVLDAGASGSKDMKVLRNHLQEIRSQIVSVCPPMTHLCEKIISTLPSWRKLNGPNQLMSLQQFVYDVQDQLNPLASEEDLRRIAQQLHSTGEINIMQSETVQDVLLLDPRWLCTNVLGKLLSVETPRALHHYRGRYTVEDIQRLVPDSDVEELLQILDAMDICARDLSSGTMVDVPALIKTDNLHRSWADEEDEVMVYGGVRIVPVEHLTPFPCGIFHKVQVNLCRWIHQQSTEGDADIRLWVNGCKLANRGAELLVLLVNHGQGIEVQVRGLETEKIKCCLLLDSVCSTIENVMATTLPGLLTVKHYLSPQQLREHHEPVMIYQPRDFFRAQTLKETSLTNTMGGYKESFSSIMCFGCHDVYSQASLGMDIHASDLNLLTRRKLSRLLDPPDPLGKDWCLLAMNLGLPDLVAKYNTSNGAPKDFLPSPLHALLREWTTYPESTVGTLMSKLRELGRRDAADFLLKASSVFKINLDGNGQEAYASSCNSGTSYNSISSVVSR

[11] = biological target: IKBKE (human) (UniProt Q14164)
[12] = biological target: PRKCI (human) (UniProt P41743)
[13] = biological target: NEK6 (human) (UniProt Q9HC98)
[14] = biological target: ZAP70 (human) (UniProt P43403)
[15] = biological target: PRKCZ (human) (UniProt Q05513)
[16] = biological target: BMX (human) (UniProt P51813)
Sequence of BMX (human) (P51813 whole entry, looked up): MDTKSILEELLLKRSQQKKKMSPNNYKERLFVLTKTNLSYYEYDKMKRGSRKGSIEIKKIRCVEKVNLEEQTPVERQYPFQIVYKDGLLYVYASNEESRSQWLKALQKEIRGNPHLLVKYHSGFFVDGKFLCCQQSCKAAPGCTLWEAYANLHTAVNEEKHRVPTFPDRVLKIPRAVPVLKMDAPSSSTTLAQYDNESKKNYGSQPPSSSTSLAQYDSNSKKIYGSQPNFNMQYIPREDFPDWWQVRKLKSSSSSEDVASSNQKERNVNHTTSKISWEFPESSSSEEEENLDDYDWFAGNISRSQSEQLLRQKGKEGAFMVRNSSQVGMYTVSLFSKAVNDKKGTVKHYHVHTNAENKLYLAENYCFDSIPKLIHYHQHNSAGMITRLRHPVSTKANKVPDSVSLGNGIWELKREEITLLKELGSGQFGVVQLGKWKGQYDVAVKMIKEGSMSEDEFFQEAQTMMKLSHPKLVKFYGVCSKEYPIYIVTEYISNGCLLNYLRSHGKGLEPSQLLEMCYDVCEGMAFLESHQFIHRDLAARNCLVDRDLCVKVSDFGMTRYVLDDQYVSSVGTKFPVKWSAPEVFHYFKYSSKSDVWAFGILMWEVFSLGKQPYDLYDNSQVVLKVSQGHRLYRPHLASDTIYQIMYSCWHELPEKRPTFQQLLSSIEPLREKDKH

[17] = biological target: ROCK1 (human) (UniProt Q13464)
[18] = biological target: TYK2 JH1 JH2 (human) (UniProt P29597)
[19] = biological target: MAPK8 (human) (UniProt P45983)
[20] = biological target: FLT3 (human) (UniProt P36888)
[21] = biological target: MAP3K8 (human) (UniProt P41279)
[22] = biological target: AURKB (human) (UniProt Q96GD4)
[23] = biological target: EPHB2 (human) (UniProt P29323)
[24] = biological target: CSNK2A1 (human) (UniProt P68400)
Sequence of CSNK2A1 (human) (P68400 whole entry, looked up): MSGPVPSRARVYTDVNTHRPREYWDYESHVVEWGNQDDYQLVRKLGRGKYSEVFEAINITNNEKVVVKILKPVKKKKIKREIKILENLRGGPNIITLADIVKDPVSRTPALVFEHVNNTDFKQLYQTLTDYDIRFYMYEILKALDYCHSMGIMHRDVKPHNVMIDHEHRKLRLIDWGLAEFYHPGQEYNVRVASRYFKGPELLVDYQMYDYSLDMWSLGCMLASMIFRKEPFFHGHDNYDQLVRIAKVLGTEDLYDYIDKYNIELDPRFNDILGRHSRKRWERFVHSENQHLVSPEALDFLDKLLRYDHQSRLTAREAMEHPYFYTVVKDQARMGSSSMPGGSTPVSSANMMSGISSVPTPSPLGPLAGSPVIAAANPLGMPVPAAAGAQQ

[25] = biological target: CDC42BPA (human) (UniProt Q5VT25)
[26] = biological target: SRC (human) (UniProt P12931)
Sequence of SRC (human) (P12931 whole entry, looked up): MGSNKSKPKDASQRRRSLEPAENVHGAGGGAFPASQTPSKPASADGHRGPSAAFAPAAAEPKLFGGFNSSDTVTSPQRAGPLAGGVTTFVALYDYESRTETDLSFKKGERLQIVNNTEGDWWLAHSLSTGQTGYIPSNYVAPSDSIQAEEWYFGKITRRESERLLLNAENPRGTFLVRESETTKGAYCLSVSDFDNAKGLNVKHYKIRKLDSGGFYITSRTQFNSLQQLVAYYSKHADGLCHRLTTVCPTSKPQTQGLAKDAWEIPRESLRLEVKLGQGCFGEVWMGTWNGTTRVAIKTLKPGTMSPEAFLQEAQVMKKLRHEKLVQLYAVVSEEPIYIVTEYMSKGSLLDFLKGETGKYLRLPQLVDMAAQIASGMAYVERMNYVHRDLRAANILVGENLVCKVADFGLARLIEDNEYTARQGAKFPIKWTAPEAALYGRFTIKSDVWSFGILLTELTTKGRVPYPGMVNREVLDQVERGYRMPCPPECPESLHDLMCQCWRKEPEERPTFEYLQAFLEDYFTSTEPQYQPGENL

[27] = biological target: NTRK1 (human) (UniProt P04629)
[28] = biological target: MAPKAPK2 (human) (UniProt P49137)

Sequence of ADRBK1 (human) (P25098 whole entry, looked up): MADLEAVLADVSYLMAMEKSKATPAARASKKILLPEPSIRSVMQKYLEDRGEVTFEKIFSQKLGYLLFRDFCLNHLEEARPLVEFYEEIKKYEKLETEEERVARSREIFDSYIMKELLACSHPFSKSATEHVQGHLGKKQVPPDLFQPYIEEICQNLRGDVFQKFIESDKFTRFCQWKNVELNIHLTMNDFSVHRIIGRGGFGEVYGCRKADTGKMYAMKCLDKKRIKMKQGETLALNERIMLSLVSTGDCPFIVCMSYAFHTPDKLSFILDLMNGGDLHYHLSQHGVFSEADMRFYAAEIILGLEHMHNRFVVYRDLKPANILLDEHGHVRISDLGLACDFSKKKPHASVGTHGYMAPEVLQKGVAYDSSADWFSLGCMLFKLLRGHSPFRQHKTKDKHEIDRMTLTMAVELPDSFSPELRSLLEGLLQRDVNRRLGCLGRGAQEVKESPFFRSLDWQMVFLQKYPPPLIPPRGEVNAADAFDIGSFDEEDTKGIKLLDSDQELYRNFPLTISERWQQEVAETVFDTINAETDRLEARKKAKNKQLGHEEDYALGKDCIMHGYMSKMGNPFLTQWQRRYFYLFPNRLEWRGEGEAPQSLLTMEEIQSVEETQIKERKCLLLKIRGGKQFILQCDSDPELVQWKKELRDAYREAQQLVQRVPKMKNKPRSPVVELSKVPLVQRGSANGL
Sequence of KDR (human) (P35968 whole entry, looked up): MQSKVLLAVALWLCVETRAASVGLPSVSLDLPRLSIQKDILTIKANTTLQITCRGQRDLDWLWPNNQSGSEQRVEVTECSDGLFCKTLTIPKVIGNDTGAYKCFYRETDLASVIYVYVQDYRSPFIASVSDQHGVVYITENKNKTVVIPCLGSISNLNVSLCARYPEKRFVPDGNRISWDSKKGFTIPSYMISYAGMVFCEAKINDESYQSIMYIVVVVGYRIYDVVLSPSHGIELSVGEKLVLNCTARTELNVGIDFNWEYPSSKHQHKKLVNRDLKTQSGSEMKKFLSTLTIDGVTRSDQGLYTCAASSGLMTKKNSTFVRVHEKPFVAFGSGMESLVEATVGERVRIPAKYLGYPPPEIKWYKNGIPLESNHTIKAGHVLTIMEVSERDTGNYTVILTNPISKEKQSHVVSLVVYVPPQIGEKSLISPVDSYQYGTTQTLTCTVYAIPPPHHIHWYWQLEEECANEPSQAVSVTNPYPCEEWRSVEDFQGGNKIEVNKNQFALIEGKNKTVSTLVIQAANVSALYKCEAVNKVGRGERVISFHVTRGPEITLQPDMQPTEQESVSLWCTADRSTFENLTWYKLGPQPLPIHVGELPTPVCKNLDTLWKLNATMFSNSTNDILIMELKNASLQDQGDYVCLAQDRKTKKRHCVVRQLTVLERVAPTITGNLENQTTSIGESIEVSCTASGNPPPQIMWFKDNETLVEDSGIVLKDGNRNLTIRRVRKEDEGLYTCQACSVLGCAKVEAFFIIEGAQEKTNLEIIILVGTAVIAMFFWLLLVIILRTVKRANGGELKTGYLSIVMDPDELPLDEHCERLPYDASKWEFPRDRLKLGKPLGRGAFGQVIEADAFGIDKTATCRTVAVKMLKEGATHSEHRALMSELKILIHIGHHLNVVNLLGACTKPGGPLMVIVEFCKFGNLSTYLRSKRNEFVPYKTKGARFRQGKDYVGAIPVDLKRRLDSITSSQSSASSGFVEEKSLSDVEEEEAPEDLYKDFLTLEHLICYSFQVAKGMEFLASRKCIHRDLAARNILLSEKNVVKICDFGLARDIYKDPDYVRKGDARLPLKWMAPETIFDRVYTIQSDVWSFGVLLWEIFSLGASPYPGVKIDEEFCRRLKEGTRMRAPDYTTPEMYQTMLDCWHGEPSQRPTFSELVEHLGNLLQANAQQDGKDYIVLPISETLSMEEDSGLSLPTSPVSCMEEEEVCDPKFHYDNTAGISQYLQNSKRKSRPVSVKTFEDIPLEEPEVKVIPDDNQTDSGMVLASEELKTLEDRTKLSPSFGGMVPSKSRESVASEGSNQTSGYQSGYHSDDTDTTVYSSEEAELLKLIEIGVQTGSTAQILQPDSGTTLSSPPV

- inhibition ([1]; compound 0.1 µM): 11.3%
- inhibition ([1]; compound 1.0 µM): 10.6%
- inhibition ([1]; compound 10.0 µM): 14.6%
- inhibition ([2]; compound 0.1 µM): 12.3%
- inhibition ([2]; compound 1.0 µM): 13.5%
- inhibition ([2]; compound 10.0 µM): -0.3%
- inhibition ([3]; compound 0.1 µM): 20%
- inhibition ([3]; compound 1.0 µM): 54.7%
- inhibition ([3]; compound 10.0 µM): 93.9%
- inhibition ([4]; compound 0.1 µM): 5.2%
- inhibition ([4]; compound 1.0 µM): 6.7%
- inhibition ([4]; compound 10.0 µM): 7.9%
- inhibition ([5]; compound 0.1 µM): 9.4%
- inhibition ([5]; compound 1.0 µM): 8.9%
- inhibition ([5]; compound 10.0 µM): 10.4%
- inhibition ([6]; compound 0.1 µM): 10.7%
- inhibition ([6]; compound 1.0 µM): 33.3%
- inhibition ([6]; compound 10.0 µM): 79%
- inhibition ([7]; compound 0.1 µM): 17.9%
- inhibition ([7]; compound 1.0 µM): 20.8%
- inhibition ([7]; compound 10.0 µM): 20.1%
- inhibition ([8]; compound 0.1 µM): 16.4%
- inhibition ([8]; compound 1.0 µM): 15.3%
- inhibition ([8]; compound 10.0 µM): 16.7%
- inhibition ([9]; compound 0.1 µM): 7.5%
- inhibition ([9]; compound 1.0 µM): 5.9%
- inhibition ([9]; compound 10.0 µM): 11.1%
- inhibition ([10]; compound 0.1 µM): 21.9%
- inhibition ([10]; compound 1.0 µM): 2.1%
- inhibition ([10]; compound 10.0 µM): 14.5%
- inhibition ([11]; compound 0.1 µM): 7.5%
- inhibition ([11]; compound 1.0 µM): 7%
- inhibition ([11]; compound 10.0 µM): 8.6%
- inhibition ([12]; compound 0.1 µM): 10.5%
- inhibition ([12]; compound 1.0 µM): 10.2%
- inhibition ([12]; compound 10.0 µM): 8.8%
- inhibition ([13]; compound 0.1 µM): 5.2%
- inhibition ([13]; compound 1.0 µM): -7.4%
- inhibition ([13]; compound 10.0 µM): 9.6%
- inhibition ([14]; compound 0.1 µM): 18.4%
- inhibition ([14]; compound 1.0 µM): 17.4%
- inhibition ([14]; compound 10.0 µM): 15.2%
- inhibition ([15]; compound 0.1 µM): 9.2%
- inhibition ([15]; compound 1.0 µM): 9.9%
- inhibition ([15]; compound 10.0 µM): 6.9%
- inhibition ([16]; compound 0.1 µM): 7.2%
- inhibition ([16]; compound 1.0 µM): 7.7%
- inhibition ([16]; compound 10.0 µM): -77.3%
- inhibition ([17]; compound 0.1 µM): 0%
- inhibition ([17]; compound 1.0 µM): 2.5%
- inhibition ([17]; compound 10.0 µM): 10.9%
- inhibition ([18]; compound 0.1 µM): 5.1%
- inhibition ([18]; compound 1.0 µM): 8%
- inhibition ([18]; compound 10.0 µM): 23.7%
- inhibition ([19]; compound 0.1 µM): 2.8%
- inhibition ([19]; compound 1.0 µM): 0.1%
- inhibition ([19]; compound 10.0 µM): 6.2%
- inhibition ([20]; compound 0.1 µM): 24.6%
- inhibition ([20]; compound 1.0 µM): 59.7%
- inhibition ([20]; compound 10.0 µM): 80%
- inhibition ([21]; compound 0.1 µM): 28%
- inhibition ([21]; compound 1.0 µM): 23.4%
- inhibition ([21]; compound 10.0 µM): 12.9%
- inhibition ([22]; compound 0.1 µM): 19.7%
- inhibition ([22]; compound 1.0 µM): 51.8%
- inhibition ([22]; compound 10.0 µM): 96.4%
- inhibition ([23]; compound 0.1 µM): 8.6%
- inhibition ([23]; compound 1.0 µM): 8%
- inhibition ([23]; compound 10.0 µM): 3.5%
- inhibition ([24]; compound 0.1 µM): 8.2%
- inhibition ([24]; compound 1.0 µM): 9.2%
- inhibition ([24]; compound 10.0 µM): 10.2%
- inhibition ([25]; compound 0.1 µM): 6.3%
- inhibition ([25]; compound 1.0 µM): 8.7%
- inhibition ([25]; compound 10.0 µM): 8.6%
- inhibition ([26]; compound 0.1 µM): 3.7%
- inhibition ([26]; compound 1.0 µM): 7.4%
- inhibition ([26]; compound 10.0 µM): 15%
- inhibition ([27]; compound 0.1 µM): 18.9%
- inhibition ([27]; compound 1.0 µM): 37.2%
- inhibition ([27]; compound 10.0 µM): 68.9%
- inhibition ([28]; compound 0.1 µM): 9.5%
- inhibition ([28]; compound 1.0 µM): 7.8%
- inhibition ([28]; compound 10.0 µM): 19.8%
SMILES: Cn1cc(-c2cnc3ccc4ccc(CC(=O)NCc5ccccn5)cc4c(=O)c3c2)cn1
